# Test results taken from ChEMBL document CHEMBL3864179, “Development of 1H-Pyrazolo[3,4-b]pyridines as Metabotropic Glutamate Receptor 5 Positive Allosteric Modulators” (ACS Med Chem Lett, 2016).
# Key:
# [1] = Plasma concentration in C57Bl/6 mouse at 30 mg/kg, ip measured after 60 mins; assay type: ADME, organism-based
# [2] = Ratio of drug level in brain to plasma in C57Bl/6 mouse at 30 mg/kg, ip; assay type: ADME, organism-based; settings: read-out: BPR
compound,measurement,setting,value
N#Cc1c(-c2ccccc2)nc2[nH]nc(-c3ccc(Cl)c(C(F)(F)F)c3)c2c1C1CC1,concentration at 1 h,[1],2800 nM
same,Kp,[2],0.5
